US20240002365A1, “PYRIDAZINE AND 1,2,4-TRIAZINE DERIVATIVES AS FGFR KINASE INHIBITORS” (BETA PHARMA, INC., priority 2020, published 2024)

Molecular target: FGFR1 (Homo sapiens (Human), UniProt P11362)
Assay: RBC NanoBRET Assay for Target Engagement in HEK293 cells transfected with FGFR1-NanoLuc Fusion vector
Type: cell-based
Details: 1 hour, tracer K5 1 μM
Protocol: Cellular Assay. The RBC NanoBRET Assay for Target Engagement was performed by Reaction Biology Corporation, 1 Great Valley Parkway, Suite 2 Malvern, PA 19355, USA. The assay was conducted in HEK293 cells transiently transfected with FGFR1-NanoLuc Fusion vector. The HEK293 cells (ATCC) were transfected with 1 μg of FGFR1-NanoLuc Fusion vector in 384-well format and the transfected cells were subsequently treated with the test compounds (starting at 10 μM, 10-dose with 3-fold dilution) for 1 hour using CTx-0294885 as the reference standard and K5 (1 μM) was used as the tracer. FGFR1 target engagement was measured and the curve fits were performed only when % NanoBret signal at the highest concentration of compounds was less than 55%.

Chain of FGFR1 (P11362 22-822): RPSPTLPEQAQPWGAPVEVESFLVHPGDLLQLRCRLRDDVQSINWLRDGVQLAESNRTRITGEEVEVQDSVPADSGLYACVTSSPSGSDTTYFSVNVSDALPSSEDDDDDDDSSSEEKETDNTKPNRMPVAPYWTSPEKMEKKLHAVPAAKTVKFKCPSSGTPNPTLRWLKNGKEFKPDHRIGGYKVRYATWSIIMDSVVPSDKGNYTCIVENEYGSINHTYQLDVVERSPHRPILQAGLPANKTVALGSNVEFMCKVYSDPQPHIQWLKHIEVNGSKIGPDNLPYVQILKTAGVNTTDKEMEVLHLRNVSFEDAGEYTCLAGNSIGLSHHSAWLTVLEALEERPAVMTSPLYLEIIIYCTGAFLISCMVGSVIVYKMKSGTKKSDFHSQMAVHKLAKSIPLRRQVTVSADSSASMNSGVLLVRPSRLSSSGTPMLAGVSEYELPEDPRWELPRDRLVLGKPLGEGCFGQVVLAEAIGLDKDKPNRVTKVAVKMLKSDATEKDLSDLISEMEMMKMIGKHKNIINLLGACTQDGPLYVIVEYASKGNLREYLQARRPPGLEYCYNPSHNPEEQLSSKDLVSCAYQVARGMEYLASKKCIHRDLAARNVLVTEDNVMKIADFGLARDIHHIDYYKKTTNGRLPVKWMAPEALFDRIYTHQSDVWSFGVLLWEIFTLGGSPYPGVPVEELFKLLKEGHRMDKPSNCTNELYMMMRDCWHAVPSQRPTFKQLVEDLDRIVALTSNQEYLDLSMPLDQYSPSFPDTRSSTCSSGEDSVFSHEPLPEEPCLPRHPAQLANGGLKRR

COc1cc(OC)cc(N(CCNC(C)C)c2ccc3nnc(-c4cnn(C)c4)cc3c2)c1 [Example 1, N^1-(3,5-Dimethoxyphenyl)-N^2-isopropyl-N^1-(3-(1-methyl-1H-pyrazol-4-yl)cinnolin-6-yl)ethane-1,2-diamine]
IC50: 9.5 nM
